{
  "source": "paper PMC3325260",
  "about": "“Label-Free Phenotypic Profiling Identified D-Luciferin as a GPR35 Agonist” (PLoS ONE, 2012)",
  "key": {"[1]": {"target": "T1, endogenous GPR35 in HT-29 cells (Homo sapiens, UniProt Q9HC97)", "T1 sequence (Q9HC97 whole entry)": "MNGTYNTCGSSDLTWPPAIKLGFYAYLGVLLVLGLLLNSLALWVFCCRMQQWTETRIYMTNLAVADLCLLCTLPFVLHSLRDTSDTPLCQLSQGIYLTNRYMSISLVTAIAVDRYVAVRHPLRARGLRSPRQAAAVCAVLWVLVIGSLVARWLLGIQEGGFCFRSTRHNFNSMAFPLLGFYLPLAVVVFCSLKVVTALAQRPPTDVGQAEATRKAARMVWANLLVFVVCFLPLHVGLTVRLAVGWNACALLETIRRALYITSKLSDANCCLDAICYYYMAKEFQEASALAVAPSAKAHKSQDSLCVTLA", "test": "cell-based", "description": "(§1) All DMR assays were performed using Epic® system (Corning Inc.). Epic® is a wavelength interrogation reader system tailored for resonant waveguide grating biosensors in microtiter plates. This system consists of a temperature-control unit (26°C), an optical detection unit, and an on-board liquid handling unit with robotics. The detection unit is centered on integrated fiber optics, and enables kinetic measures of cellular responses with a time interval of ∼15 sec. Cells were directly seeded in Epic® plates and cultured overnight to form confluent monolayer in the cell culture medium. The cell seeding density was 32, 000 cells per well, unless specifically mentioned. After being washed twice, the cells were maintained with HBSS (1× Hanks balanced salte buffer, 10 mM Hepes-KOH, pH 7.1) and further incubated inside the system for 1 hr. […] The assay vehicle containing equal amount of DMSO (dimethyl sulfoxide) was used as a control. All ligand-induced DMR were background corrected."}, "[2]": {"target": "T1, endogenous GPR35 in HT-29 cells", "description": "All data represent mean ± s.d. from 2 independent measurements, each in duplicate (n = 4).\nas §1"}, "[3]": {"tested_on": "ERK1/2 phosphorylation in HT-29 cells", "test": "ERK phosphorylation, Western blot", "type": "cell-based, human", "settings": "for effect on the D-luciferin-induced ERK phosphorylation: 5 min after 32 µM D-luciferin, antagonist at different doses", "from_the_text": "Since ligand-directed functional selectivity or biased agonism is quite common to many, if not all, GPCRs, we next examined the activity of D-luciferin using ERK phosphorylation, receptor internalization and Tango β-arrestin translocation assays. ERK phosphorylation is a hallmark of the activation and signaling of many GPCRs including GPR35 [20].\nThe phosphorylated ERK and total ERK were blotted, and actin was used as control. Representative images obtained from 2 independent measurements were used.\nThe p44/42 MAP kinases were examined using Western blotting. Whole cell lysates were collected after the cells were treated with a compound or DMSO for 1 hr. Equivalent gel loading was confirmed by probing with anti-actin body. The total ERK1/2 and phosphorylated ERK1/2 were blotted using respective antibodies."}, "[4]": {"target": "T1, endogenous GPR35 in HT-29 cells", "settings": "32 µM, 1 hr", "from_the_text": "Representative images obtained from 2 independent measurements were used."}, "[5]": {"target": "T2, human GPR35 in Tango GPR35-bla U2OS cells (Homo sapiens, UniProt Q9HC97)", "T2 sequence (Q9HC97 whole entry)": "as above"}, "[6]": {"target": "T2, human GPR35 in Tango GPR35-bla U2OS cells", "test": "cell-based", "settings": "read-out: maximal response relative to the zaprinast maximal response"}, "[7]": {"tested_on": "purified luciferase enzyme", "settings": "binding to purified luciferase enzyme; cited from earlier work"}, "[8]": {"target": "T1, endogenous GPR35 in HT-29 cells", "test": "DMR agonist assay in native HT-29 cells", "type": "cell-based", "parameters": "endogenous in cells; host or cells: HT-29", "settings": "for maximal P-DMR amplitude: HT-29 cells, picometer shift of resonant wavelength, n = 36; for DMR response of the compound alone: HT-29, up to 64 µM", "from_the_text": "First, multiple DMR assays were employed to characterize the pharmacology of D-luciferin in HT-29 cells, a native cell line endogenously expressing GPR35 [18]. […] Second, D-luciferin-induced internalization of endogenous GPR35 in HT-29 cells was examined. Third, D-luciferin-induced ERK phosphorylation in the absence and presence of GPR35 antagonists was examined in HT-29 cells. Fourth, Tango β-arrestin translocation assay was finally employed to examine the agonism of D-luciferin to cause β-arrestin translocation in an engineered cell line.\nas §1"}, "[9]": {"target": "T1, endogenous GPR35 in HT-29 cells", "test": "DMR antagonist assay (antagonist pre-treatment, then agonist)", "type": "cell-based", "parameters": "endogenous in cells; host or cells: HT-29", "settings": "for IC50: 5 min pre-stimulation with antagonist, then D-luciferin at 32 µM, n = 4, read-out: apparent IC50 of blocking the DMR induced by D-luciferin", "description": "as §1, with “Epic®” for “All DMR assays were performed using Epic® system (Corning Inc.). Epic®”"}, "[10]": {"target": "T1, endogenous GPR35 in HT-29 cells", "parameters": "endogenous in cells; host or cells: HT-29; method as in PMID 21950657", "settings": "up to 64 µM; cited from earlier work"}, "[11]": {"target": "T1, endogenous GPR35 in HT-29 cells", "parameters": "endogenous in cells; host or cells: HT-29; method as in PMID 21950657", "settings": "cited from earlier work"}},
  "note": "Read-outs that look alike come from different tables or passages of the source.",
  "data": [
    {"compound": "O=C(O)[C@H]1CSC(c2nc3ccc(O)cc3s2)=N1", "note": "[D-luciferin, (S)-2-(6′-hydroxy-2′-benzothiazolyl)thiazoline-4-carboxylic acid]", "values": [
      {"measurement": "IC50", "setting": "[1]", "value": "6.8 ± 0.7", "unit": "µM"},
      {"measurement": "effect on the potency of pamoic acid in DMR co-stimulation", "setting": "[2]; D-luciferin at different fixed doses, up to 50 µM", "value": "did not alter the potency"},
      {"measurement": "effect on DMR of pamoic acid at 200 nM (saturating concentration)", "setting": "[2]; high doses of D-luciferin", "value": "reduced the DMR in a dose-dependent manner"},
      {"measurement": "time of maximum ERK phosphorylation after stimulation", "setting": "[3]; 32 µM D-luciferin", "value": 2, "unit": "min"},
      {"measurement": "ERK phosphorylation", "setting": "[3]; 32 µM D-luciferin for different times", "value": "led to phosphorylation of ERK in a time-dependent manner"},
      {"measurement": "internalization of endogenous GPR35", "setting": "[4]", "value": "remarked internalization"},
      {"measurement": "effect on the maximal response of zaprinast, Tango co-stimulation", "setting": "[5]; 100 µM D-luciferin", "value": "only slightly suppressed"},
      {"measurement": "effect on the maximal response of zaprinast, Tango co-stimulation", "setting": "[5]; 1 mM D-luciferin", "value": "suppressed the maximal response"},
      {"measurement": "effect on the potency of zaprinast, Tango co-stimulation", "setting": "[5]; D-luciferin at 100 µM and 1 mM", "value": "little impact"},
      {"measurement": "Emax", "setting": "[6]", "value": 20, "unit": "%"},
      {"measurement": "Km", "setting": "[7]", "value": 16, "unit": "µM"},
      {"measurement": "maximal P-DMR amplitude", "setting": "[8]", "value": "198±12", "unit": "pm"}
    ]},
    {"compound": "CC(/C=C1\\SC(=S)N(CCCC(=O)Nc2ccc(C(=O)O)c(O)c2)C1=O)=C\\c1ccccc1", "note": "[ML145]", "values": [
      {"measurement": "effect on the D-luciferin-induced ERK phosphorylation", "setting": "[3]", "value": "dose-dependently attenuated"}
    ]},
    {"compound": "COC(=O)c1cnn(-c2ccc(F)cc2F)c1/C=N/NC(N)=S", "note": "[SPB05140]", "values": [
      {"measurement": "DMR response of the compound alone", "setting": "[8]", "value": "little response"},
      {"measurement": "IC50", "setting": "[9]", "value": "5 ± 0.9", "unit": "µM"}
    ]},
    {"compound": "COC(=O)c1cnn(-c2ccc(F)cc2F)c1C=NNC(=S)NC(C)(C)C", "note": "[SPB05142, methyl-5-[(tert-butylcarbamothioylhydrazinylidene)-methyl]-1-(2,4-difluorophenyl)-pyrazole-4-carboxylate]", "values": [
      {"measurement": "ERK phosphorylation by compound alone", "setting": "[3]; 25 µM", "value": "weak but detectable ERK phosphorylation"},
      {"measurement": "effect on the D-luciferin-induced ERK phosphorylation", "setting": "[3]", "value": "dose-dependently attenuated"},
      {"measurement": "IC50", "setting": "[9]", "value": "1.5 ± 0.2", "unit": "µM"},
      {"measurement": "D-luciferin DMR in presence of antagonist at the two highest doses", "setting": "[9]; SPB05142 at 16 and 32 µM, D-luciferin 32 µM", "value": "small but detectable negative DMR signal"},
      {"measurement": "DMR response of the compound alone", "setting": "[10]", "value": "did not lead to any detectable DMR"},
      {"measurement": "blockade of the DMR induced by zaprinast", "setting": "[11]", "value": "almost completely blocked"}
    ]},
    {"compound": "COC(=O)c1cnn(-c2ccc(F)cc2F)c1/C=N/NC(=S)Nc1ccccc1", "note": "[SPB05143]", "values": [
      {"measurement": "DMR response of the compound alone", "setting": "[8]", "value": "little response"},
      {"measurement": "IC50", "setting": "[9]", "value": "2.6 ± 0.3", "unit": "µM"}
    ]},
    {"compound": "Cc1c(C(=O)O)sc2c(Br)csc12", "note": "[YE210]", "values": [
      {"measurement": "ERK phosphorylation", "setting": "[3]; 1 µM, 30 min after treatment", "value": "led to ERK phosphorylation"}
    ]},
    {"compound": "O=C(O)c1cc2ccccc2c(Cc2c(O)c(C(=O)O)cc3ccccc23)c1O", "note": "[pamoic acid]", "values": [
      {"measurement": "ERK phosphorylation", "setting": "[3]; 1 µM, 30 min after treatment", "value": "much lower ERK phosphorylation"}
    ]},
    {"compound": "CCCOc1ccccc1-c1nc2nn[nH]c2c(=O)[nH]1", "note": "[zaprinast]", "values": [
      {"measurement": "ERK phosphorylation", "setting": "[3]; 1 µM, 30 min after treatment", "value": "led to ERK phosphorylation"},
      {"measurement": "maximal P-DMR amplitude", "setting": "[8]", "value": "276±17", "unit": "pm"}
    ]}
  ]
}
